Test results published in patent US20210196782A1 (priority 2015, published 2021).
Entries after “also recorded” stand apart in the source; their conditions may differ.

What was measured:
primary cortical neurons [1] = format: cell-based
primary cortical neurons [2] = format: cell-based; remark: listed apart in the source
primary cortical neurons [3] = tested on: primary cortical neurons
[4] = tested on: mouse middle cerebral artery occlusion (MCAO) stroke model; conditions: in vivo
primary cortical neurons [5] = format: cell-based; remark: listed apart in the source
primary cortical neurons [6] = tested on: primary cortical neurons; remark: listed apart in the source
[7] = tested on: mouse middle cerebral artery occlusion (MCAO) stroke model; conditions: in vivo; remark: listed apart in the source
[8] = tested on: mouse middle cerebral artery occlusion (MCAO) stroke model; conditions: in vivo; remark: listed apart in the source

O=C1CC[C@@]2(O)[C@H]3Cc4ccc(O)c5c4[C@@]2(CCN3CC2CC2)[C@H]1O5 [NTX, naltrexone]
neuronal death (LDH), NMDA, in words (primary cortical neurons [1]): did not show any significant effect | neuronal death (LDH), in words (primary cortical neurons [2]): No statistical significant difference | neuronal survival (MTT), NMDA, in words (primary cortical neurons [3]): did not show any significant effect | neurological score, in words [4]: did not improve any neurological score | ROS production, in words (primary cortical neurons [5]): did not show a significant decrease in ROS production | neuronal survival (MTT), in words (primary cortical neurons [6]): No statistical significant difference

C[C@@H](NC(=O)[C@@H](N)Cc1ccc(O)cc1)C(=O)NCC(=O)N[C@@H](Cc1ccccc1)C(=O)NNC(=O)[C@H](Cc1ccccc1)NC(=O)CNC(=O)[C@@H](C)NC(=O)[C@@H](N)Cc1ccc(O)cc1 [biphalin]
less LDH release, NMDA (primary cortical neurons [1]): 18.4% | neuronal death (LDH), NMDA, in words (primary cortical neurons [1]): significantly decreased relative neuronal death | less LDH release (primary cortical neurons [2]): 30.5% | neuronal death (LDH), in words (primary cortical neurons [2]): significantly decreased neuronal cell death | edema formation, in words [7]: significantly decreased edema formation | infarct formation, in words [7]: significantly decreased; also recorded: significantly reduced infarct formation | reduction in edema formation [7]: 56.17% | reduction in infarct ratio [7]: 67.0% | Horizontal Activity [8]: 760 | No. of Movements [8]: 42 | Rest Time [8]: 240 s | Stereotpy Counts [8]: 390 | Total Distance (CM) [8]: 650 CM | Vertical Activity [8]: 28 | locomotor parameters, in words [8]: statistically significantly improved all the locomotor parameters | neuronal survival (MTT), NMDA, in words (primary cortical neurons [3]): significantly improved relative neuronal survival | more neuronal survival (MTT), NMDA (primary cortical neurons [3]; 3 h): 28.7% | neurological score improvement [4]: 25.5% | neurological score, in words [4]: improved neurological behavior | ROS production, in words (primary cortical neurons [5]): significantly decreased ROS production | less ROS production (primary cortical neurons [5]): 29.1% | neuronal survival (MTT), in words (primary cortical neurons [6]): significantly increased neuronal survival | more neuronal survival (MTT) (primary cortical neurons [6]; 3 h, 10 nM): 42.6%
